Results published in US20110158907A1, “DIPHENYL-HETEROARYL DERIVATIVES AND THEIR USE FOR BINDING AND IMAGING AMYLOID PLAQUES” (The Trustees of the Univeristy of Pennsylvania, priority 2007, published 2011).
Where two headings read alike, the source gives them in different places.

What was measured:
[1] = target: fibrillar Aβ aggregates (Homo sapiens, UniProt P05067); settings: read-out: inhibition constants (Ki) for binding to fibrillar Aβ aggregates; cited from earlier work
[2] = target: T1, Amyloid Plaque (Homo sapiens, UniProt P05067); experiment: Inhibition of ^125I-IMPY binding in AD brain homogenates; settings: read-out: Binding Affinity (Ki vs. ^125I-IMPY)
T1 sequence (P05067 672-711 limits assumed): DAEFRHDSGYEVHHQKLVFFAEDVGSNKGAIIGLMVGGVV
Method: Postmortem brain tissue was obtained and neuropathological diagnosis was confirmed in accordance with the NIA-Reagan Institute Consensus Group criteria. Homogenates were then prepared from dissected gray matter, pooled in phosphate buffered saline and aliquoted into 1-ml portions (100 mg wet tissue/ml), which could be stored at −70° C. for 3-6 months without loss of binding signal.
For the binding assays brain homogenates were incubated with ^125I-IMPY (0.04-0.06 nM diluted in phosphate buffered saline (PBS)) and test compound (10^−5-10^−10 M diluted in PBS containing 0.1% bovine serum albumin (BSA)). Nonspecific binding was defined in the presence of IMPY (600 nM). The bound and free radioactivity was separated by vacuum filtration followed by 2×3 ml washes of PBS. Filters containing the bound ^125I ligand were assayed in a gamma counter.

[3] = system: CNS receptors; experiment: Selectivity against CNS receptors; settings: cell wraps r7-r10: No high affinity binding to any CNS receptors
[4] = Organ distribution of ^123I-33 in normal mice; type: in vivo, ICR mice; settings: i.v.; for Biodistribution Brain / % total counted / Biodistribution Pancreas / Biodistribution Pancrease: normal male mice
Method: Total activities of blood were calculated under the assumption that they were 7% of the total body weight.

[5] = target: T1, Amyloid Plaque; settings: AD brain homogenates; read-out: Binding Affinity (Ki vs. ^125I-IMPY), published values; cited from earlier work
[6] = Partition coefficient (1-octanol/buffer); type: physicochemical; settings: 1-octanol / 0.1 M phosphate buffer pH 7.4
Method: Partition coefficients were measured by mixing the [^125I] or [^18F]tracer with 3 g each of 1-octanol and buffer (0.1 M phosphate, pH 7.4) in a test tube. The test tube was vortexed for 3 min at room temperature, followed by centrifugation for 5 min. Two weighed samples (0.5 g each) from the 1-octanol and buffer layers were counted in a well counter. The partition coefficient was determined by calculating the ratio of cpm/g of 1-octanol to that of buffer. Samples from the 1-octanol layer were re-partitioned until consistent partitions of coefficient values were obtained. The measurement was done in triplicate and repeated three times.
Partition coefficients were measured by mixing ^123I-33 with 3 g each of 1-octanol and buffer (0.1 M phosphate, pH 7.4) in a test tube. The test tube was vortexed for 3 min at room temperature, followed by centrifugation for 5 min. Two weighed samples (0.5 g each) from the 1-octanol and the buffer layer were counted in a well counter. The partition coefficient was determined by calculating the ratio of cpm/g of 1-octanol to that of the buffer. Samples from the 1-octanol layer were repartitioned until consistent partitions of,coefficient values were obtained from the third partition. The measurement was done in triplicate and repeated three times.

[7] = system: Aβ plaques in AD brain tissue homogenates; experiment: Specific binding of radiolabeled ligands to AD and control brain tissue homogenates; design: species or system human; settings: for specific binding, gray matter homogenates of AD / specific binding, white matter homogenates of AD brain: 0.06 nM [^125I]probe, 0.5 nM [^18F]probe
Method: FIG. 6 depicts specific binding of preferred embodiments of the present invention to pooled AD and control brain tissue homogenates. Gray and white matters were dissected from the cortical regions. Higher specific binding was detected mainly in gray matter of AD. Relatively low binding was measured in white matter homogenates of AD as well as in gray and white matter homogenates of the control brain.
AD postmortem brain tissues were obtained from University of Washington Alzheimer's Disease Research Center. The neuropathological diagnosis was confirmed by current criteria (NIA-Reagan Institute Consensus Group, 1997). Homogenates were then prepared from dissected gray matters from four pooled AD patients in phosphate buffered saline (PBS, pH 7.4) at the concentration of approximately 100 mg wet tissue/ml (motor-driven glass homogenizer with setting of 6 for 30 sec). The homogenates were aliquoted into 1 mL-portions and stored at −70° C. for up to 2 years without loss of binding signal.
Similarly, the specific binding of radioiodinated and radiofluorinated ligands (0.06 nM for [^125I]probe and 0.5 nM for [^18F]probe to homogenates, prepared from the gray and white matters of AD and control brain tissues, were carried out as described above. Nonspecific binding was determined in the presence of 2 μM of the corresponding nonradioactive probes.
To further characterize the specificity of plaque binding, we evaluated [^125I]10a and [^18F]17a by a direct in vitro binding assay using homogenates (from different brain regions) prepared from AD and control brain tissues.

[8] = system: Aβ plaques in AD brain sections; experiment: In vitro film autoradiography of macroarray brain sections; type: binding, human
Excerpt: FIG. 5 depicts in vitro film autoradiography of macroarray brain sections constructed from AD and control cases. The Aβ plaques were clearly visualized with low background labeling with two preferred radiofluorinated probes of the present invention.
(§1) To compare different probes using similar sections of human brain tissue, human macro-array brain sections from 6 confirmed AD cases and one control subject were assembled. The presence and localization of plaques on the sections was confirmed with immunohistochemical staining with monoclonal Aβ antibody 4G8 (Sigma). The frozen sections were incubated with [^125I] and [^18F]tracers (200,000-250,000 cpm/200 μL) for 1 h at room temperature. The sections were then dipped in saturated lithium carbonate in 40% EtOH (two two-minute washes) and washed with 40% EtOH (one two-minute wash) followed by rinsing with water for 30 sec. After drying, the ^125I- or ^18F-labeled sections were exposed to Kodak Biomax MR film overnight.
[^18F]tracers: Brain sections from AD subjects were obtained by freezing the brain in powdered dry ice and cut into 20 micrometer-thick sections. The sections were incubated with [^18F]tracers (200,000-250,000 cpm/200 μl) for 1 hr at room temperature. The sections were then dipped in saturated Li2CO3 in 40% EtOH (two two-minute washes) and washed with 40% EtOH (one two-minute wash) followed by rinsing with water for 30 sec. After drying, the ^18F-labeled sections were exposed to Kodak MR film overnight. The results are depicted in the film in FIG. 2.
as §1, with “[^125I]tracers: To” for “To”, “The” for “The frozen”, “[^125I]tracers” for “[^125I] and [^18F]tracers”, “Li2CO3” for “lithium carbonate”, “^125I-labeled” for “^125I- or ^18F-labeled”
A macro-array block was constructed using postmortem human brain samples consisting of seven confirmed AD cases. […] In vitro film autoradiography was carried out using these novel ^125I or ^18F labeled diphenyltriazole probes. […] The labeling pattern was consistent with that observed by immunohistochemical labeling with an antibody (4G8) specific for Aβ (data not shown).

[9] = mouse; for brain washout index (brain2 min/brain30 min) / remaining in the brain: in vivo; for remaining in the brain: 2 h
Method: (§2) While under isoflurane anesthesia, 0.15 mL of a 0.1% bovine serum albumin solution containing [^125I] or [^18F]tracers (5-10 μCi) was injected directly into the tail vein of ICR mice (22-25 g, male). The mice (n=3 for each time point) were sacrificed by cervical dislocation at designated time-points post injection. The organs of interest were removed and weighed, and the radioactivity was counted with an automatic gamma counter. The percentage dose per organ was calculated by a comparison of the tissue counts to suitably diluted aliquots of the injected material. The total activity of the blood was calculated under the assumption that it is 7% of the total body weight. The % dose/g of samples was calculated by comparing the sample counts with the count of the diluted initial dose.

[10] = Organ distribution of [^125I] or [^18F]tracers in normal mice
Method: as §2

[11] = system: Aβ plaques; experiment: Labeling of Aβ plaques in AD sections by ^123I-33 at tracer concentrations; type: binding, human
[12] = Estimate of human dosimetry extrapolated from the mouse data; settings: proposed 5 mCi human dose
Method: When administered i.v. to male mice, ^123I-33 entered the brain quickly and reached a peak brain concentration of 3.7% dose/g within 2 min post administration and fell to 0.25% dose/g within 60 min. […] At the proposed 5 mCi human dose the lower large intestine is estimated to receive approximately 3.8 rem, while the upper large intestine is estimated to receive approximately 3.3 rem of exposure.

fibrillar Aβ aggregates, sequence (P05067 672-711 limits assumed): as above

For O=C(O)c1cc(/N=N/c2ccc(-c3ccc(/N=N/c4ccc(O)c(C(=O)O)c4)cc3)cc2)ccc1O [CG, chrysamine-G], the Ki [1] is given as 0.37 µM.
For CN(C)c1ccc(-c2cn(-c3ccc(OCCO)c([123I])c3)nn2)cc1 [Compound 33, 2-(4-(4-(4-(dimethylamino)phenyl)-1H-1,2,3-triazol-1-yl)-2-iodophenoxy)ethanol], the Ki [2] was 0.0075 ± 0.0005 µM, the Selectivity [3] was “No high” and the “Biodistribution Brain” value ([4]; 2 min) was 3.69 ± 0.14 % dose/g. The “Biodistribution Brain” value ([4]; 60 min) was 0.25 ± 0.03 % dose/g.
In the case of CC(=C(C#N)C#N)c1ccc2cc(N(C)CCF)ccc2c1 [FDDNP, 2-(1-{6-[(2-fluoroethyl)(methyl)amino]-2-naphthyl}ethylidene)malononitrile], the Ki [5] is listed as 0.239 µM.
In the case of CN(C)c1ccc(-c2cn(-c3ccc(OCC[18F])cc3)nn2)cc1 [[^18F]17a], the “log P” value [6] is reported as 2.7, the “specific binding signal, homogenates of control brain tissues (gray and white matters)” value [7] is reported as “low” and the “specific binding, gray matter homogenates of AD” value [7] is reported as “detected predominantly in the gray matter homogenates of AD”. The “specific binding, white matter homogenates of AD brain” value [7] was “very low or nonexistent”, the Aβ plaque labeling [8] was “most distinctive Aβ plaque-labeling” and the “white matter (background) labeling” value [8] was “minimal level of background in the white matter areas”. The “bone uptake (in vivo defluorination)” value [9] was 4.64 % dose/g, the “brain washout index (brain2 min/brain30 min)” value [9] was 2.34 and the “remaining in the brain” value [9] was 1-2 % dose/g.
With CN(C)c1ccc(-c2cn(-c3ccc(OCCC[18F])cc3)nn2)cc1 [[^18F]17b] the “log P” value [6] was 2.7, the Aβ plaque labeling [8] was “most distinctive Aβ plaque-labeling” and the “white matter (background) labeling” value [8] was “minimal level of background in the white matter areas”. For the same compound, the “bone uptake (in vivo defluorination)” value [9] was 18.59 % dose/g, the “brain washout index (brain2 min/brain30 min)” value [9] was 2.31 and the “remaining in the brain” value [9] was 1-2 % dose/g.
With CNc1ccc(-c2cn(-c3ccc([125I])cc3)nn2)cc1 [[^125I]10a] the “log P” value [6] was 3.0, the “specific binding signal, homogenates of control brain tissues (gray and white matters)” value [7] was “low” and the “specific binding, gray matter homogenates of AD” value [7] was “detected predominantly in the gray matter homogenates of AD”. The “specific binding, white matter homogenates of AD brain” value [7] was “very low or nonexistent”, the “white matter (background) labeling” value [8] was “significant white matter labeling” and the “brain washout index (brain2 min/brain30 min)” value [10] was 5.66.
For CN(C)c1ccc(-c2cn(-c3ccc([125I])cc3)nn2)cc1 [[^125I]10b], the “log P” value [6] was 3.4 and the “brain washout index (brain2 min/brain30 min)” value [10] was 3.72.
In the case of CN(C)c1ccc(-c2cn(-c3ccc(OCCO)c([123I])c3)nn2)cc1 [^123I-33, 2-(4-(4-(4-(dimethylamino)phenyl)-1H-1,2,3-triazol-1-yl)-2-[^123I]iodophenoxy)ethanol], the “labeling of Aβ plaques in sections from patients with pathologically confirmed AD” value [11] is reported as “specifically labeled Aβ plaques”, the logD [6] is reported as 3.25 and the logP ([6]; 1-octanol/buffer (0.1 M phosphate)) is reported as 3.25. For the same compound, the “% total counted” value ([4]; 2 min) was 90.41 ± 5.38%, the “Biodistribution Pancreas” value ([4]; 2 min) was 0.90 ± 0.12 % dose/organ and the “Biodistribution Pancrease” value ([4]; 2 min) was 5.32 ± 0.08 % dose/g. For the same compound, the “% total counted” value ([4]; 60 min) was 81.43 ± 5.66%, the “Biodistribution Pancreas” value ([4]; 60 min) was 0.25 ± 0.11 % dose/organ and the “Biodistribution Pancrease” value ([4]; 60 min) was 1.35 ± 0.52 % dose/g. The “% total counted” value ([4]; 120 min) was 80.05 ± 6.33%, the “Biodistribution Pancreas” value ([4]; 120 min) was 0.19 ± 0.09 % dose/organ and the “Biodistribution Pancrease” value ([4]; 120 min) was 1.09 ± 0.46 % dose/g. The “% total counted” value ([4]; 180 min) was 81.95 ± 4.47%, the “Biodistribution Pancreas” value ([4]; 180 min) was 0.22 ± 0.03 % dose/organ and the “Biodistribution Pancrease” value ([4]; 180 min) was 1.29 ± 0.14 % dose/g. For the same compound, the “brain penetration and clearance” value ([4]; normal mice) was “readily penetrated and was rapidly cleared from the brain”, the “estimated exposure of lower large intestine” value [12] was “approximately 3.8 rem” and the “estimated exposure of upper large intestine” value [12] was “approximately 3.3 rem”. The “estimated human effective dose (ED)” value [12] was “approximately 1.26 rem”.
